Results reported in ChEMBL document CHEMBL5303709, “ECBD screening data for assay EOS300041” (2022).
Peptide text beside a SMILES is read from it. * marks the point of attachment. Cbz = O=C(OCc1ccccc1)*

Biological target: Replicase polyprotein 1ab (Severe acute respiratory syndrome coronavirus 2) (UniProt P0DTD1)
Experiment: Inhibition of SARS-CoV-2 3CL-Pro proteolytic cleavage of a dual-labeled substrate by FRET.
Assay type: functional
Parameters: assay stage

| Structure (SMILES) | IC50 relative [µM] |
| --- | --- |
| O=C(/C=C/c1ccc2ccccc2n1)c1ccncc1 | > 20 |
| COc1cc(N(C)C)cc(CN(C)CCc2ccc([N+](=O)[O-])cc2)c1O | 6.09 |
| O=C(O)c1c(Cl)c(Cl)c(Cl)c(Cl)c1-c1c2cc(I)c(=O)c(I)c-2oc2c(I)c(O)c(I)cc12 | > 20 |
| Cc1ccc(C)c(-n2sc3cc(F)ccc3c2=O)c1 | < 0.02 |
| Sc1nnc(-c2ccccc2Cl)o1 | > 20 |
| Cn1sc(=O)n(Cc2ccccc2)c1=O | < 0.02 |
| O=C(O)C1=CC(=C(c2ccc(O)c(C(=O)O)c2)c2ccc(O)c(C(=O)O)c2)C=CC1=O | > 20 |
| [O-][n+]1ccccc1S | 0.0487 |
| O=c1c2ccccc2sn1-c1ccccc1 | < 0.02 |
| COc1ccnc(C[S+]([O-])c2nc3cc(OC(F)F)ccc3[nH]2)c1OC (configuration not stated) | > 20 |
| O=C1C(Cl)=C(Cl)C(=O)C(Cl)=C1Cl | < 0.02 |
| O=C(NC(=S)N1CCCc2ccccc21)c1ccccc1 | > 20 |
| COc1ccc2[nH]c([S+]([O-])Cc3ncc(C)c(OC)c3C)nc2c1 (configuration not stated) | > 20 |
| Cc1ccc(-n2sc(=O)n(Cc3ccc(F)cc3)c2=O)cc1 | < 0.02 |
| CCN(CC)S(=O)(=O)c1cccc(-n2sc3ccccc3c2=O)c1 | < 0.02 |
| Cc1c(-c2ccc(N3CCc4cccc(C(=O)Nc5nc6ccccc6s5)c4C3)nc2C(=O)O)cnn1CC12CC3CC(CC(C3)C1)C2 | > 20 |
| O=c1c(O)cccc2cc(O)c(O)c(O)c12 | 6.98 |
| Sc1nnc(Nc2ccccc2)s1 | 0.39 |
| O=C(CCl)c1ccccc1 | 0.19 |
| S=C=Nc1cccc(NC(=S)NCCCCNC(=S)Nc2cccc(N=C=S)c2)c1 | > 20 |
| COc1ncc(-c2ccc3nccc(-c4ccnnc4)c3c2)cc1NS(=O)(=O)c1ccc(F)cc1F | > 20 |
| Cc1ccc(-n2sc3ccccc3c2=O)cc1 | < 0.02 |
| CC(C)C[C@@H](C=O)NC(=O)[C@H](CC(C)C)NC(=O)[C@H](CC(C)C)NC(=O)OCc1ccccc1 (Cbz-Leu-Leu-Leu-aldehyde) | > 20 |
| Cc1cc(-c2ccc(/C=C3/S/C(=N\c4ccc(Cl)c(C(=O)O)c4)NC3=O)o2)c([N+](=O)[O-])cc1C | > 20 |
| CC1=CC(=O)c2ccccc2C1=O | > 20 |
| Oc1cc2c(cc1C(c1ccc(C(F)(F)F)cc1)N1CCOCC1)OCO2 (configuration not stated) | 0.545 |

| Structure (SMILES) | IC50 relative [µM] |
| --- | --- |
| C[C@H]1COC2=C1C(=O)C(=O)c1c2ccc2c1CCCC2(C)C | > 20 |
| COc1ccc2[nH]c(S)nc2c1 | > 20 |
| CC(C)(C)OC(=O)NCCc1nnc(S(=O)(=O)Cc2ccc(Cl)cc2Cl)o1 | 4.22 |
| NC(Cc1cc(O)c(O)cc1O)C(=O)O (racemic) | > 20 |
| CCN1CCN(C(c2ccc(C(F)(F)F)cc2)c2ccc3cccnc3c2O)CC1 (configuration not stated) | 0.152 |
| Nc1nc(S)c2ncn(C3OC(CO)C(O)C3O)c2n1 (configuration not stated) | 1.07 |
| O=C(c1ccc(Cl)cc1)c1cc([N+](=O)[O-])ccc1N1CCOCC1 | > 20 |
| Nc1ccc(O)c2ncccc12 | 2.05 |
| CCOC(=O)c1c(N)sc(-c2ccccc2)c1C | 3.28 |
| O=c1cc(-c2ccccc2)oc2cc(O)c(O)c(O)c12 | > 20 |
| Sc1nnnn1-c1ccccc1 | 2.36 |
| CN(C)S(=O)(=O)c1cccc(-n2sc3ccccc3c2=O)c1 | < 0.02 |
| CCN(CC)C(=S)S | > 20 |
| COc1ccc2[nH]c3c(S)ncnc3c2c1 | > 20 |
| O=C(O)[C@@H](S)[C@@H](S)C(=O)O | 6.74 |
| Cc1ccc(S(=O)(=O)N[C@@H](Cc2ccccc2)C(=O)CCl)cc1 | 1.37 |
| S=C=NCc1ccccc1 | > 20 |
| COC(=O)CC[C@H](NC(=O)[C@H](CC(=O)OC)NC(=O)OCc1ccccc1)C(=O)N[C@H](C(=O)N[C@@H](CC(=O)OC)C(=O)CF)C(C)C | < 0.02 |
| Cc1cc(-c2ccc(/N=N/c3ccc4c(S(=O)(=O)O)cc(S(=O)(=O)O)c(N)c4c3O)c(C)c2)ccc1/N=N/c1ccc2c(S(=O)(=O)O)cc(S(=O)(=O)O)c(N)c2c1O | > 20 |
| CCOc1cc(C(Nc2cc(C)ccn2)c2ccc3cccnc3c2O)ccc1OC (configuration not stated) | 0.269 |
| O=C(c1cccs1)c1no[n+]([O-])c1C(=O)c1cccs1 | 11 |
| O=C(Nc1ccccc1)Nc1ccc(-c2ccc(C(=O)[C@@H]3CCC[C@H]3C(=O)O)cc2)cc1 | > 20 |
| CCCCn1c(NC(=O)c2cccs2)c(C#N)c2nc3ccccc3nc21 | > 20 |
| CC(Cc1ccc(O)c(O)c1)C(C)Cc1ccc(O)c(O)c1 (configuration not stated) | > 20 |
| O=[N+]([O-])c1ccc(Sc2cccc[n+]2[O-])c2nonc12 | < 0.02 |
| CN1CCN(C(=O)c2ccc(-c3ccc4c(C=O)c(O)ccc4c3)s2)CC1 | 1.94 |
